Experimental data published in patent publication US20100324132A1, “METHODS AND COMPOSITIONS FOR PROMOTING WOUND HEALING” (priority 2005, published 2010).

Tests used:
Enterococcus faecalis [1] = test: Antibiotic resistance profile, disc diffusion; note: key: R = resistant; I = intermediate; S = sensitive; type: cell-based; conditions: E. faecalis isolated from burn patients
Staphylococcus aureus [2] = test: Antibiotic resistance profile, disc diffusion; note: key: R = resistant; I = intermediate; S = sensitive; type: cell-based; conditions: S. aureus isolated from burn patients
Pseudomonas aeruginosa [3] = test: Antibiotic resistance profile, disc diffusion; note: key: R = resistant; I = intermediate; S = sensitive; type: cell-based; conditions: P. aeruginosa isolated from burn patients
[4] = system: surface ulcers with multiple resistant pathogenic species; test: Bath treatment of ulcerated Koi; type: in vivo, Koi (Cyprinus carpio); conditions: antibiotics injected directly into the fish before the bath treatment
Method: An immersion treatment of the infected animals of 5 to 10 minutes on alternate days over a six day period promoted healing of most ulcers.
All of the treated fish had previously been given injections of Azactam, Baytril, and Amikacin. […] Among the species of bacteria found in the ulcers of the fish were representatives of the genera Aeromonas, Proteus, Klebsiella, Staphylococcus, Streptococcus, Enterobacter and Flavobacterium.
All fish were housed in a communal “hospital tank” before treatment and moved to an isolation tank after each treatment. The temperature of the bath was adjusted to that of the hospital tank temperature, 24 C, and adequate aeration was supplied to the treatment tank. Eight of the fish had external ulcers of various dimensions. Two of the fish were dropsied.

Aeromonas sobria = test: MIC and FIC of EDTA and neomycin, Aeromonas isolated from ulcerated fish; type: cell-based; conditions: A. sobria
Method: (§1) This example describes a method for determining the FIC values set forth in Example 4. […] Agents and Chem. pp. 210-217 (1967); and Sparks et al., Vet. Res. Comm. 18:241-249 (1994). Each of the foregoing publications are incorporated herein by reference. […] Then 0.05 ml of an 18-hour old culture of a test organism, containing […] colony-forming units (CFU) ml, were added to each well. Controls for the culture and media were included in each plate. Plates were covered and incubated at 37° C. for 18-24 hours. A numerical score or Fractional Inhibitory Concentration (FIC) index was determined. The FIC index is equal to the sum of the values of FIC for the individual drugs: An FIC index greater than 1.0 indicated an antagonistic interaction, an FIC index of 1.0 indicated addition, and an FIC index of less than or equal to 0.5 indicated synergism between the two test agents.

Aeromonas caviae = test: as above; type: cell-based; conditions: A. caviae
Method: as §1

Enterococcus faecalis [5] = test: MIC/MBC and checkerboard of EDTA-Tris and neomycin; type: cell-based; conditions: in 50 mM Tris
Method: (§2) This example describes a method for determining the FIC values set forth in Example 4. […] Agents and Chem. pp. 210-217 (1967); and Sparks et al., Vet. Res. Comm. 18:241-249 (1994). Each of the foregoing publications are incorporated herein by reference.
(§3) Then 0.05 ml of an 18-hour old culture of a test organism, containing […] colony-forming units (CFU) ml, were added to each well. Controls for the culture and media were included in each plate. Plates were covered and incubated at 37° C. for 18-24 hours.
(§4) To generate isobolograms, FICs of the two test solutions were plotted individually on the x-axis and y-axis to determine the effect of combining the two test solutions on bacterial growth. A line that curves away from the zero point and the coordinates indicated antagonism. […] Goodman and Gilman, pp. 1085-1086 (Macmillan Publishing Co., New York, 1985); Sabath, L. D., Antimicrob. Agents and Chem. pp. 210-217 (1967) and incorporated herein by reference in their entireties.
(§5) A numerical score or Fractional Inhibitory Concentration (FIC) index was determined. The FIC index is equal to the sum of the values of FIC for the individual drugs:
(§6) An FIC index greater than 1.0 indicated an antagonistic interaction, an FIC index of 1.0 indicated addition, and an FIC index of less than or equal to 0.5 indicated synergism between the two test agents.
(§7) The organisms of this study were isolated from human burn patients. They included strains of methicillin resistant Staphylococcus aureus, and vancomycin resistant strains of Pseudomonas aeruginosa and Enterococcus faecalis. The bacterial isolates were propagated in or on Brain Heart Infusion broth (BHI), Mueller-Hinton Broth (MHB), blood agar (BA), Mueller-Hinton agar (MBA), enterococcus agar (EA), or 2× nutrient agar (2× NA).
(§8) 307 (pub: Am. Soc. Microbiol. Williams and Wilkins, Baltimore 1970), incorporated herein by reference in its entirety.

Pseudomonas aeruginosa [6] = test: MIC/MBC and checkerboard of EDTA-Tris and neomycin; type: cell-based; conditions: in 50 mM Tris
Method: as §2, §3, §4, §5, §6, §7, §8

Proteus mirabilis = test: MIC/MBC of cocamidopropyl betaine, Tris-EDTA and their combination, dog isolates; type: cell-based
Method: (§9) The formulation was tested against Pseudomonas aeruginosa, Proteus mirabilis, Escherichia coli, Staphylococcus intermedius, Malessezia pachydermatis, and Candida albicans.

Malassezia pachydermatis = test: as above; type: cell-based
Method: as §9

Escherichia coli = test: as above; type: cell-based
Method: as §9

Candida albicans = test: as above; type: cell-based
Method: as §9

[7] = system: Staphylococcus intermedius; test: as above; type: cell-based
Method: as §9

Pseudomonas aeruginosa [8] = test: as above; type: cell-based
Method: as §9

Staphylococcus aureus [9] = test: MIC/MBC of Tris, EDTA, cocamidopropyl betaine and silver combinations, human burn isolates; type: cell-based; conditions: S. aureus isolated from a human burn patient; x = multiple of the stock solution
Pseudomonas aeruginosa [10] = test: as above; type: cell-based; conditions: P. aeruginosa isolated from a human burn patient; x = multiple of the stock solution
Aeromonas hydrophila = test: MIC and FIC of EDTA and neomycin, Aeromonas isolated from ulcerated fish; type: cell-based; conditions: A. hydrophila
Method: as §1

Staphylococcus aureus [11] = test: MIC/MBC and checkerboard of EDTA-Tris and neomycin; type: cell-based; conditions: in 50 mM Tris
Method: as §2, §3, §4, §5, §6, §7, §8

[12] = P. mirabilis from dogs, x = multiple of the 1x stock solution
[13] = M. pachydermatis from dogs, x = multiple of the 1x stock solution
[14] = E. coli isolated from a dog with otitis externa, x = multiple of the 1x stock solution
[15] = C. albicans from dogs, x = multiple of the 1x stock solution
[16] = S. intermedius from dogs, x = multiple of the 1x stock solution
[17] = P. aeruginosa from dogs with otitis externa and pyoderma, x = multiple of the 1x stock solution

## CC1(C)S[C@@H]2[C@H](NC(=O)[C@H](N)c3ccccc3)C(=O)N2[C@H]1C(=O)O [Am, ampicillin]
Enterococcus faecalis [1]
  Antibiotic resistance profile: S
Staphylococcus aureus [2]
  Antibiotic resistance profile: R^B
Pseudomonas aeruginosa [3]
  Antibiotic resistance profile: R

## NCC[C@H](O)C(=O)N[C@@H]1C[C@H](N)[C@@H](O[C@H]2O[C@H](CN)[C@@H](O)[C@H](O)[C@H]2O)[C@H](O)[C@H]1O[C@H]1O[C@H](CO)[C@@H](O)[C@H](N)[C@H]1O [Amikacin]
[4]
  Healing of ulcers: failed to heal visible ulcers

## C[C@H]1[C@H](NC(=O)/C(=N\OC(C)(C)C(=O)O)c2csc(N)n2)C(=O)N1S(=O)(=O)O [Azactam]
[4]
  Healing of ulcers: failed to heal visible ulcers

## CCN1CCN(c2cc3c(cc2F)c(=O)c(C(=O)O)cn3C2CC2)CC1 [Baytril]
[4]
  Healing of ulcers: failed to heal visible ulcers

## O=C(N[C@H](CO)[C@H](O)c1ccc([N+](=O)[O-])cc1)C(Cl)Cl [C, chloramphenicol]
Enterococcus faecalis [1]
  Antibiotic resistance profile: R
Staphylococcus aureus [2]
  Antibiotic resistance profile: I
Pseudomonas aeruginosa [3]
  Antibiotic resistance profile: R

## CC[C@H]1OC(=O)[C@H](C)[C@@H](O[C@H]2C[C@@](C)(OC)[C@@H](O)[C@H](C)O2)[C@H](C)[C@@H](O[C@@H]2O[C@H](C)C[C@H](N(C)C)[C@H]2O)[C@](C)(O)C[C@@H](C)C(=O)[C@H](C)[C@@H](O)[C@]1(C)O [E, erythromycin]
Enterococcus faecalis [1]
  Antibiotic resistance profile: R
Staphylococcus aureus [2]
  Antibiotic resistance profile: R
Pseudomonas aeruginosa [3]
  Antibiotic resistance profile: R

## O=C(O)CN(CCN(CC(=O)O)CC(=O)O)CC(=O)O [EDTA, ethylenediaminetetraacetate]
Aeromonas sobria
  MIC, EDTA in 50 mM Tris alone: 15.6
Aeromonas caviae
  MIC, EDTA in 50 mM Tris alone: <0.49
Enterococcus faecalis [5]
  MBC, individually administered: 250 mM
Pseudomonas aeruginosa [6]
  MBC, individually administered: 250 mM

## Cc1noc(NS(=O)(=O)c2ccc(N)cc2)c1C [G, sulfisoxazole]
Enterococcus faecalis [1]
  Antibiotic resistance profile: R
Staphylococcus aureus [2]
  Antibiotic resistance profile: S
Pseudomonas aeruginosa [3]
  Antibiotic resistance profile: R

## NC[C@H]1O[C@H](O[C@H]2[C@H](O)[C@@H](O[C@H]3O[C@H](CO)[C@@H](O)[C@H](N)[C@H]3O)[C@H](N)C[C@@H]2N)[C@H](O)[C@@H](O)[C@@H]1O [K, kanamycin]
Enterococcus faecalis [1]
  Antibiotic resistance profile: R
Staphylococcus aureus [2]
  Antibiotic resistance profile: R
Pseudomonas aeruginosa [3]
  Antibiotic resistance profile: R

## CCn1cc(C(=O)O)c(=O)c2ccc(C)nc21 [NA, nalidixic acid]
Enterococcus faecalis [1]
  Antibiotic resistance profile: R
Staphylococcus aureus [2]
  Antibiotic resistance profile: R
Pseudomonas aeruginosa [3]
  Antibiotic resistance profile: R

## [H]/N=C(/N)N[C@H]1[C@H](O)[C@@H](O)[C@H](O[C@@H]2O[C@@H](C)[C@](O)(C=O)[C@H]2O[C@@H]2O[C@@H](CO)[C@H](O)[C@@H](O)[C@@H]2NC)[C@@H](N/C(N)=N\[H])[C@@H]1O [S, streptomycin]
Enterococcus faecalis [1]
  Antibiotic resistance profile: R
Staphylococcus aureus [2]
  Antibiotic resistance profile: S
Pseudomonas aeruginosa [3]
  Antibiotic resistance profile: R

## CN(C)[C@@H]1C(O)=C(C(N)=O)C(=O)[C@@]2(O)C(O)=C3C(=O)c4c(O)cccc4[C@@](C)(O)[C@H]3C[C@@H]12 [Te, tetracycline]
Enterococcus faecalis [1]
  Antibiotic resistance profile: R
Staphylococcus aureus [2]
  Antibiotic resistance profile: S
Pseudomonas aeruginosa [3]
  Antibiotic resistance profile: R

## CN[C@H](CC(C)C)C(=O)N[C@H]1C(=O)N[C@@H](CC(N)=O)C(=O)N[C@H]2C(=O)N[C@H]3C(=O)N[C@H](C(=O)N[C@H](C(=O)O)c4cc(O)cc(O)c4-c4cc3ccc4O)[C@H](O)c3ccc(c(Cl)c3)Oc3cc2cc(c3O[C@@H]2O[C@H](CO)[C@@H](O)[C@H](O)[C@H]2O[C@H]2C[C@](C)(N)[C@H](O)[C@H](C)O2)Oc2ccc(cc2Cl)[C@H]1O [Va, vancomycin]
Enterococcus faecalis [1]
  Antibiotic resistance profile: R
Staphylococcus aureus [2]
  Antibiotic resistance profile: S
Pseudomonas aeruginosa [3]
  Antibiotic resistance profile: R

## cocamidopropyl betaine
Proteus mirabilis; P. mirabilis
  MBC: 50% of stock solution
  MIC: 25% of stock solution
Proteus mirabilis; [12]
  MBC: 0.5x
  MIC: 0.25x
Malassezia pachydermatis; M. pachydermatis
  MBC: 0.3% of stock solution
  MIC: 0.1% of stock solution
Malassezia pachydermatis; [13]
  MBC: 0.003x
  MIC: 0.001x
Escherichia coli; E. coli
  MBC: 50% of stock solution
  MIC: 25% of stock solution
Escherichia coli; [14]
  MBC: 0.5x
  MIC: 0.25x
Candida albicans; C. albicans
  MBC: 0.3% of stock solution
  MIC: 0.1% of stock solution
Candida albicans; [15]
  MBC: 0.003x
  MIC: 0.001x
[7]; S. intermedius
  MBC: 0.1% of stock solution
  MIC: 0.1% of stock solution
[7]; [16]
  MBC: 0.001x
  MIC: 0.001x
Pseudomonas aeruginosa [8]; P. aeruginosa
  MBC: 50% of stock solution
  MIC: 25% of stock solution
Pseudomonas aeruginosa [8]; [17]
  MBC: 0.5x
  MIC: 0.25x
Staphylococcus aureus [9]
  MBC: 0.001x
  MIC: 0.001x
Pseudomonas aeruginosa [10]
  MBC: 0.5x
  MIC: 0.25x

## gentamicin [GM]
Enterococcus faecalis [1]
  Antibiotic resistance profile: R
Staphylococcus aureus [2]
  Antibiotic resistance profile: S
Pseudomonas aeruginosa [3]
  Antibiotic resistance profile: I

## neomycin
Aeromonas sobria
  MIC, neomycin alone: 12.5 µg/mL
Aeromonas hydrophila
  MIC, neomycin alone: 200 µg/mL
Aeromonas caviae
  MIC, neomycin alone: 12.5 µg/mL
Enterococcus faecalis [1]
  Antibiotic resistance profile: R
Enterococcus faecalis [5]
  MBC, individually administered: 25000 µg/mL
Pseudomonas aeruginosa [6]
  MBC, individually administered: 5000 µg/mL
Staphylococcus aureus [11]
  MBC, individually administered: 3130 µg/mL
Staphylococcus aureus [2]
  Antibiotic resistance profile: R
Pseudomonas aeruginosa [3]
  Antibiotic resistance profile: R

## oxacillin/methicillin
Enterococcus faecalis [1]
  Antibiotic resistance profile: R
Staphylococcus aureus [2]
  Antibiotic resistance profile: R
Pseudomonas aeruginosa [3]
  Antibiotic resistance profile: R
